For orientation: MIC means the lowest concentration that inhibits growth of the organism. High values mean weaker potency, low ones greater potency. The term Ki denotes the equilibrium dissociation constant of an inhibitor or competing ligand from its target. A high value points to weaker binding. The IC50 is the concentration at which inhibition is half-maximal. One may read the inhibition as the share of the control response that was lost under treatment. A lower inhibition goes with a response near the control. As a reminder, the GI50 is the concentration that inhibits growth by half. A higher GI50 goes with lower sensitivity of the cells.

Values after ≈ are worked out from the molar mass of the structure shown.

The values that follow come from ChEMBL document CHEMBL4382239, “Pharmaceutical significance of azepane based motifs for drug discovery: A critical review” (Eur J Med Chem, 2019).

The test system of assay [1] is Staphylococcus aureus. Put plainly: Antibacterial activity against Staphylococcus aureus. The format is functional.
A further assay deals with Alpha-galactosidase (Coffea arabica, UniProt Q42656). The assay is described as follows: Inhibition of green coffee bean alpha-galactosidase.
The target in assay [2] is T1, Beta-galactosidase (Aspergillus oryzae, UniProt B7VU80).
T1 sequence (B7VU80 whole entry): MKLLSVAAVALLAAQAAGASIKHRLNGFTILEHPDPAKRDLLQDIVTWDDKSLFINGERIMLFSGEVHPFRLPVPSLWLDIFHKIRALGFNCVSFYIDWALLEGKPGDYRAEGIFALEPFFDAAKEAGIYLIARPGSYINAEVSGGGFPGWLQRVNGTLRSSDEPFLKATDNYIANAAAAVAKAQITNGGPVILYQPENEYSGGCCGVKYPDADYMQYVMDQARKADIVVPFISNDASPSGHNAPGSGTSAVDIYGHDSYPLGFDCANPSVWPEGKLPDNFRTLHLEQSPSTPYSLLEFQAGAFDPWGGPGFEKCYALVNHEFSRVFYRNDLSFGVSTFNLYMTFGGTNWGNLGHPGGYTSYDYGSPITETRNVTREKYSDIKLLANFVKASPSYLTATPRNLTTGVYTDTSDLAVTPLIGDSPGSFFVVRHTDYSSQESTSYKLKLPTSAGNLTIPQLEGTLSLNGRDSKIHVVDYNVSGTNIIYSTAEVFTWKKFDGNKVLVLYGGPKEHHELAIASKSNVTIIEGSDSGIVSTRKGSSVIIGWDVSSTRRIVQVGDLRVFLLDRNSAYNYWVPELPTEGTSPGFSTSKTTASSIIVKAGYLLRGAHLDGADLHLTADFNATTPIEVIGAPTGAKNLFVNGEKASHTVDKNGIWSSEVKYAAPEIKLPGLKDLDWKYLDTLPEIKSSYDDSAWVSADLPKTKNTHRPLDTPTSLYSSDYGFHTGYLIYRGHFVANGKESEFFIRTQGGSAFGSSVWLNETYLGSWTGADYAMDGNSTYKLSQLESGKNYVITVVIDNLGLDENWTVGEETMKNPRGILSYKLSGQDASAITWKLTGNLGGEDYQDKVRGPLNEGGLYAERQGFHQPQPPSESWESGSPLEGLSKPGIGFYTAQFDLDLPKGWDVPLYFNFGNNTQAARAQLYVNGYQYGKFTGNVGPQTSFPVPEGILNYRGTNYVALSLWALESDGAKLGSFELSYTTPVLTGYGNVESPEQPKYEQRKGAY
The assay is described as follows: Inhibition of Aspergillus oryzae beta-galactosidase.

The species named for the next assay is Bos taurus. The assay is described as follows: Competitive inhibition of bovine epididymis alpha-L-fucosidase at 1 mM relative to control.
Assay [3] can be described thus: Competitive inhibition of bovine epididymis alpha-L-fucosidase. Set-up: species or system Bos taurus.
Assay [4] is described as follows: Competitive inhibition of almond beta-glucosidase. Set-up: species or system Prunus dulcis.
For a further assay, the system named is Prunus dulcis. The assay is described as follows: Competitive inhibition of almond beta-glucosidase at 1 mM relative to control.
The next assay concerns Salmonella typhi. Put plainly: Antibacterial activity against […] incubated for 16 to 18 hrs by serial plate dilution method. Type of assay: functional, Salmonella enterica subsp. enterica serovar Typhi. The following applies: Salmonella enterica.
A further assay has as its system Micrococcus luteus. Put plainly: Antibacterial activity against Micrococcus luteus ATCC 4698 incubated for 16 to 18 hrs by serial plate dilution method. The format is functional.
The subject of the next assay is Shigella dysenteriae. Put plainly: Antibacterial activity against Shigella dysenteriae incubated for 16 to 18 hrs by serial plate dilution method. Type of assay: functional.
In the next assay the test system is Bacillus subtilis. The assay is described as follows: Antibacterial activity against Bacillus subtilis incubated for 16 to 18 hrs by serial plate dilution method. Type of assay: functional.
Another assay deals with Pseudomonas aeruginosa. The assay is described as follows: Antibacterial activity against Pseudomonas aeruginosa incubated for 16 to 18 hrs by serial plate dilution method. Type of assay: functional.
The subject of assay [5] is Staphylococcus aureus. The assay is described as follows: Antibacterial activity against Staphylococcus aureus ATCC 25923 incubated for 16 to 18 hrs by serial plate dilution method. Type of assay: functional.
A further assay deals with Escherichia coli. The assay is described as follows: Antibacterial activity against Escherichia coli DH52 incubated for 16 to 18 hrs by serial plate dilution method. Type of assay: functional.
Assay [6] can be described thus: Inhibition of 6His-tagged Mycobacterium tuberculosis inorganic pyrophosphatase using tetrasodium PPi as substrate after 8 mins by malachite green dye-based colorimetric analysis.
In assay [7] the target is Protein farnesyltransferase (Homo sapiens, UniProt P49354+P49356). Put plainly: Inhibition of human recombinant FTase using [3H]FPP as substrate after 15 mins by scintillation counting analysis. Type of assay: protein-complex assay.
For a further assay, the system named is Rattus norvegicus. Put plainly: Anticonvulsant activity in Wistar rat assessed as protection against MES-induced seizures at 15 mg/kg dosed via gastric tube. Type of assay: functional.
The next assay deals with MCF7. Put plainly: Cytotoxicity against human MCF7 cells. The format is functional.
For another assay, the system named is HCT-116. Put plainly: Cytotoxicity against human HCT116 cells. Type of assay: functional.
In the next assay the test system is HT-29. The assay is described as follows: Cytotoxicity against human HT-29 cells. The format is functional.
In assay [8] the target is T2, Beta-galactosidase (Homo sapiens, UniProt P16278).
T2 sequence (P16278 whole entry): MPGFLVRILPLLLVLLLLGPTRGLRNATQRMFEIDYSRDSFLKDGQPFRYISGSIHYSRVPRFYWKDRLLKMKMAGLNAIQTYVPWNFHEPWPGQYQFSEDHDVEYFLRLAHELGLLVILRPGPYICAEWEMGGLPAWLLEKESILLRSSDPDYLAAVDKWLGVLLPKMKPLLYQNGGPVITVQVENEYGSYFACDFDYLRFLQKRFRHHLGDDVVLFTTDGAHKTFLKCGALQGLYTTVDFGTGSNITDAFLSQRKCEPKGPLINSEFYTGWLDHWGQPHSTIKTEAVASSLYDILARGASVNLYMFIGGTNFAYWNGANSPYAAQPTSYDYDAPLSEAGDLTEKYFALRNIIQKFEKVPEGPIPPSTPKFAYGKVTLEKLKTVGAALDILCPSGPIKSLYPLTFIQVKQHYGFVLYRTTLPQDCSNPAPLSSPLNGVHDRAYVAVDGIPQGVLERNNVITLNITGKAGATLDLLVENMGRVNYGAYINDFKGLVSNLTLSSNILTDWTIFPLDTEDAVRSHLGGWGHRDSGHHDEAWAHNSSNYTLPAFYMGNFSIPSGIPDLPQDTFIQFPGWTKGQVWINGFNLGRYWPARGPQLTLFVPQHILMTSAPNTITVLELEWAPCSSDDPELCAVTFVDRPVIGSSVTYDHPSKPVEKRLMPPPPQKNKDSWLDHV
The assay is described as follows: Inhibition of beta-galactosidase (unknown origin).

Alpha-galactosidase, sequence (Q42656 whole entry): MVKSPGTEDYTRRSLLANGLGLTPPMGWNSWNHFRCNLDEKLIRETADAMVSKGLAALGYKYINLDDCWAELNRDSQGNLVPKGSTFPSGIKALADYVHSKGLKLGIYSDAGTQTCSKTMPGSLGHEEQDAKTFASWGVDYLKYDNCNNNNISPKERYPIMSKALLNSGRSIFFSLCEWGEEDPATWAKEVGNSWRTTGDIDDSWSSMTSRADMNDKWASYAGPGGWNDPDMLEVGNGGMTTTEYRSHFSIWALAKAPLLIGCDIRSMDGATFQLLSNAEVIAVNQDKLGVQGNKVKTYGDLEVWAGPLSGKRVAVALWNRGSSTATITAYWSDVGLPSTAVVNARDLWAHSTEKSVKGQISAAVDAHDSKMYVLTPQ

Turning to `NC[C@H]1O[C@H](O[C@H]2C[C@H](CO)NCC[C@H]2N)[C@H](N)[C@@H](O)[C@@H]1O`, in the assay on Staphylococcus aureus [1], the lowest concentration to inhibit growth (MIC) was 32 µg/mL (≈ 99.9 µM).

In turn, `OC[C@H]1NC[C@H](O)[C@H](O)[C@@H](O)[C@@H]1O` came in with a Ki on Alpha-galactosidase of 2.2 µM. At Beta-galactosidase [2], `O=C(O)C[C@H]1NC[C@@H](O)[C@@H](O)[C@H](O)[C@H]1O` showed an IC50 of 215 µM. `O=C(O)[C@H]1CNC[C@@H](O)[C@H](O)[C@H]1O`: in the assay filed under Bos taurus, the inhibition is 99%. Further, the Ki in [3] came to 41 µM.

Consider `O=C(O)C[C@@H]1NC[C@H](O)[C@H](O)[C@H](O)[C@H]1O`, for which inhibition on Beta-galactosidase [2] was half-maximal at 279 µM (IC50). Molecule `NC[C@H]1O[C@H](OC2C[C@H](CO)NCC[C@@H]2N)[C@H](N)[C@@H](O)[C@@H]1O` (stereo partly drawn) had an MIC in the assay with Staphylococcus aureus [1] of 64 µg/mL (≈ 200 µM). Regarding `C[C@@H]1CNC[C@@H](O)[C@H](O)[C@H]1O`, affinity in assay [4] was put at a Ki of 2.5 µM. Besides, in the assay with Prunus dulcis, the inhibition was found to be 100%. Take `COC(=O)C1CCCCN(c2ccccn2)C1C(=O)OC` (stereo not drawn): the MIC in the assay on Salmonella typhi, against Micrococcus luteus, in the assay with Shigella dysenteriae, in the assay with Bacillus subtilis, in the assay with Pseudomonas aeruginosa and against Staphylococcus aureus [5] was 1 to 16 µg/mL (≈ 3.42 to 54.7 µM) in each case. The same molecule showed an MIC against Escherichia coli of 1 to 16 µg/mL (≈ 3.42 to 54.7 µM). The molecule `c1ccc(-n2cccc2-c2nc(N3CC3)nc(N3CC3)n2)cc1` yielded an IC50 in [6] of 130 µM. With `CCCCN(CCCC)c1nc(-c2cccn2CCc2ccccc2)nc(N2CCCCCC2)n1`, the midpoint of inhibition in assay [6], the IC50, lay at 23 µM. On to `O=C(O)C[C@H]1NC[C@@H](O)[C@H](O)[C@H](O)[C@H]1O`, for which the IC50 at Beta-galactosidase [2] came to 21 µM. In the case of `COC(=O)C1CCCCN(c2ccc(Cl)cc2)C1C(=O)OC` (stereo not drawn), the MIC in the assay on Salmonella typhi, against Micrococcus luteus, against Shigella dysenteriae, against Bacillus subtilis, in the assay with Pseudomonas aeruginosa and in the assay with Staphylococcus aureus [5] was 2 to 32 µg/mL (≈ 6.14 to 98.2 µM) each time. The MIC in the assay with Escherichia coli was in the range of 2 to 32 µg/mL (≈ 6.14 to 98.2 µM). In the case of `CCC1CCCN(C)C(=O)[C+]1c1cccc(Oc2cc(C(C)(N)c3cncn3C)ccc2C#N)c1` (stereo not drawn), in assay [7], the IC50 is 0.06 nM. With `NC(=O)N1c2ccccc2C/C(=N\O)c2ccccc21`, the Activity in the assay on Rattus norvegicus stood at 90%. `CN(C)c1nc(-c2cccn2-c2ccccc2)nc(N(C)C)n1`: the 50% inhibitory concentration (IC50) in [6] came to 540 µM. `CC(C)O[C@H]1[C@H](OC(C)C)[C@H](O)CN(Cc2ccc(OCCCOc3ccc(CN4C[C@@H](O)[C@@H](OC(C)C)[C@H](OC(C)C)[C@H](O)C4)cc3)cc2)C[C@H]1O`: the GI50 in the assay on MCF7 was found to be 24 µM; in the assay on HCT-116, 6 µM; in the assay on HT-29, 23 µM.

In turn, `CCCC[C@@H]1C[C@@H](O)[C@@H](O)[C@@H](O)CN1` gave an IC50 against Beta-galactosidase [8] of 3 µM.
